Results taken from patent US20120258980A1, “Antibacterial Agent for Drug-Resistant Bacteria, Method for Screening for Same, and Use of Same” (priority 2009, published 2012).
Values after ≈ are worked out from the molar mass of the structure shown. Where a name gives a salt, the structure may show the parent alone. Read-outs that look alike come from different tables or passages of the source.

Columns and labels:
[1] = test system: methicillin-susceptible S. aureus (MSSA), MRSA and mutants thereof; test: MIC measurement, Test Example 3 (MSSA, MRSA and sequential gyrA/grlA quinolone-resistant mutants); assay type: cell-based, Staphylococcus aureus; details: Staphylococcus aureus
Outline: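 Clinical isolates and stepwise gyrA/grlA quinolone-resistant mutants grown overnight at 37° C in TSB, adjusted to A578 0.3 in CAMHB, diluted 500-fold and mixed 1:1 with drug dilutions in CAMHB.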

[2] = test system: MRSA, CA-MRSA and MSSA of Staphylococcus aureus; test: MIC measurement, Test Example 4 (MRSA, CA-MRSA and MSSA strains); assay type: cell-based; details: Staphylococcus aureus
Outline: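 S. aureus strains (FDA209P control) grown overnight in TSB at 37° C, resuspended in CAMHB, adjusted to A578 0.3 and diluted 500-fold. Equal volume added to CAMHB with serial compound concentrations, incubated statically overnight at 37° C. MIC read visually as lowest concentration without turbidity.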

[3] = test system: VRSA clinical isolates; test: microbe, parasite or virus in culture; assay type: cell-based; details: Staphylococcus aureus
Protocol: Each of the bacterial strains listed in Table 1-1 was shake-cultured at 37° C. overnight in 4 mL of a medium (Tryptical Soy Broth: TSB, product of Becton Dickinson and Company). FDA209P was used as a control.
After completion of culturing, the resultant culture was suspended in a cation-adjusted Mueller Hinton Broth (CAMHB, product of Becton Dickinson and Company). Then, the obtained bacterial culture was adjusted in absorbance with the CAMHB so that the absorbance at 578 nm of the bacterial culture was adjusted to 0.3 measured by an absorption spectrometer. In addition, the resultant bacterial culture was 500-fold diluted with the CAMHB.
Each of the 500-fold diluted, pre-cultured bacterial cultures was added at 50 μL/well to the CAMHB containing the quinolones and the nybomycins at various concentrations (50 μL/well), followed by statically culturing at 37° C. overnight.
After completion of culturing, the growth of the bacteria was visually determined based on turbidity to measure MIC in each bacterial strain.
Here, the glycopeptides used were VCM and TEIC. The β-lactam used was OXA.

[4] = test system: Enterococcus faecalis; test: MIC measurement, Test Example 6 (enterococcus); assay type: cell-based; details: Enterococcus faecalis, read-out: MIC
Outline: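 E. faecalis strains, including vancomycin-resistant NCTC12201 and NCTC12203, pre-grown overnight in TSB at 37° C, set to A578 0.3 in CAMHB, then diluted 500-fold.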

[5] = FDA209P / MRSA / MSSA, FDA209P (MSSA), control, read-out: MIC
[6] = MR5867 (MRSA), clinical isolate parent strain, no mutation
[7] = MS5935-1, first-step quinolone-resistant mutant, grlA S80F
[8] = MS5935-3, third-step mutant, further grlA E84K
[9] = ATCC 29213 / MRSA / MSSA, ATCC 29213, MSSA
[10] = FDA209P / MRSA / MSSA, FDA209P, MSSA
[11] = MRSA / MSSA / NCTC 8325, NCTC 8325, MSSA
[12] = MRSA / MSSA / USA300, USA300 FPR3757, CA-MRSA
[13] = E. faecalis 36-15672, quinolone-susceptible enterococci
[14] = E. faecalis 36-15673, quinolone-susceptible enterococci
[15] = E. faecalis 36-15678, quinolone-susceptible enterococci
[16] = E. faecalis 36-15686, quinolone-resistant enterococci
[17] = E. faecalis 36-15688, quinolone-susceptible enterococci
[18] = E. faecalis 36-15694, quinolone-resistant enterococci
[19] = E. faecalis 36-15696, quinolone-susceptible enterococci
[20] = E. faecalis 36-15703, quinolone-resistant enterococci
[21] = E. faecalis 36-15716, quinolone-resistant enterococci
[22] = E. faecalis 36-15718, quinolone-susceptible enterococci
[23] = E. faecalis 36-15720, quinolone-susceptible enterococci
[24] = E. faecalis 36-15722, quinolone-resistant enterococci
[25] = E. faecalis 36-15726, quinolone-resistant enterococci
[26] = E. faecalis 36-15730, quinolone-susceptible enterococci
[27] = E. faecalis 36-15736, quinolone-susceptible enterococci
[28] = E. faecalis 36-15741, quinolone-susceptible enterococci
[29] = NCTC 12201 / VRE, E. faecalis NCTC12201, vancomycin-resistant (VRE), quinolone-susceptible enterococci
[30] = NCTC 12203 / VRE, E. faecalis NCTC12203, vancomycin-resistant (VRE), quinolone-susceptible enterococci

Compound: C[C@@H]1CN(c2c(F)c(N)c3c(=O)c(C(=O)O)cn(C4CC4)c3c2F)C[C@H](C)N1 [SPFX, sparfloxacin]
- MIC [1, 5]: ≤ 0.063 mg/L
- MIC [1, 6]: ≤ 0.063 mg/L
- MIC ([1]; MR5867-1, first-step quinolone-resistant mutant, grlA E84K): ≤ 0.063 mg/L
- MIC ([1]; MS5935 (MSSA), clinical isolate parent strain, no mutation, read-out: MIC): ≤ 0.063 mg/L
- MIC [1, 7]: ≤ 0.063 mg/L
- MIC [1, 8]: 32 mg/L (≈ 81.5 µM)
- MIC ([1]; MS5952 (MSSA), clinical isolate parent strain, no mutation, read-out: MIC): ≤ 0.063 mg/L
- MIC [2, 9]: ≤ 0.063 mg/L
- MIC ([2]; COL, MRSA): 0.25 mg/L (≈ 0.637 µM)
- MIC [2, 10]: ≤ 0.063 mg/L
- MIC ([2]; ISA12-1, MRSA): 0.125 mg/L (≈ 0.319 µM)
- MIC ([2]; ISA12-2, MRSA): 0.125 mg/L (≈ 0.319 µM)
- MIC ([2]; ISA35-1, MRSA): 0.125 mg/L (≈ 0.319 µM)
- MIC ([2]; ISA37-1, MSSA): 0.125 mg/L (≈ 0.319 µM)
- MIC ([2]; ISA49-1, MSSA): ≤ 0.063 mg/L
- MIC ([2]; ISA51-1, MSSA): 0.125 mg/L (≈ 0.319 µM)
- MIC ([2]; ISA56-3, MRSA): 0.125 mg/L (≈ 0.319 µM)
- MIC ([2]; ISA58-1, MRSA): 0.5 mg/L (≈ 1.27 µM)
- MIC ([2]; ISA62-1, MRSA): ≤ 0.063 mg/L
- MIC ([2]; ISA73-1, MSSA): ≤ 0.063 mg/L
- MIC ([2]; KBSA32, MRSA): ≤ 0.063 mg/L
- MIC ([2]; KBSA34, MRSA): 0.125 mg/L (≈ 0.319 µM)
- MIC ([2]; KBSA72, MRSA): 128 mg/L (≈ 326 µM)
- MIC ([2]; KBSA96, MRSA): 16 mg/L (≈ 40.8 µM)
- MIC ([2]; KBSA171, MRSA): 16 mg/L (≈ 40.8 µM)
- MIC ([2]; KSA24, MRSA): 16 mg/L (≈ 40.8 µM)
- MIC ([2]; KSA31, MRSA): 8 mg/L (≈ 20.4 µM)
- MIC ([2]; KSA36, MRSA): 128 mg/L (≈ 326 µM)
- MIC [2, 11]: 0.125 mg/L (≈ 0.319 µM)
- MIC [2, 12]: 8 mg/L (≈ 20.4 µM)
- MIC ([2]; MW2, CA-MRSA): ≤ 0.063 mg/L
- MIC ([2]; N315, MRSA): ≤ 0.063 mg/L
- MIC ([3]; VRS1, VRSA, Michigan): 8 mg/L (≈ 20.4 µM)
- MIC ([3]; VRS2, VRSA, Pennsylvania): 8 mg/L (≈ 20.4 µM)
- MIC ([3]; VRS3, VRSA, New York): 16 mg/L (≈ 40.8 µM)
- MIC ([3]; VRS4, VRSA, New York): 16 mg/L (≈ 40.8 µM)
- MIC ([3]; VRS5, VRSA, Michigan): 128 mg/L (≈ 326 µM)
- MIC ([3]; VRS6, VRSA, Michigan): 16 mg/L (≈ 40.8 µM)
- MIC ([3]; VRS7, VRSA, Michigan): 16 mg/L (≈ 40.8 µM)
- MIC [4, 13]: 1 mg/L (≈ 2.55 µM)
- MIC [4, 14]: 1 mg/L (≈ 2.55 µM)
- MIC [4, 15]: 0.5 mg/L (≈ 1.27 µM)
- MIC [4, 16]: 128 mg/L (≈ 326 µM)
- MIC [4, 17]: 0.5 mg/L (≈ 1.27 µM)
- MIC [4, 18]: 64 mg/L (≈ 163 µM)
- MIC [4, 19]: 0.5 mg/L (≈ 1.27 µM)
- MIC [4, 20]: 32 mg/L (≈ 81.5 µM)
- MIC [4, 21]: 64 mg/L (≈ 163 µM)
- MIC [4, 22]: 0.5 mg/L (≈ 1.27 µM)
- MIC [4, 23]: 1 mg/L (≈ 2.55 µM)
- MIC [4, 24]: 64 mg/L (≈ 163 µM)
- MIC [4, 25]: 64 mg/L (≈ 163 µM)
- MIC [4, 26]: 1 mg/L (≈ 2.55 µM)
- MIC [4, 27]: 0.5 mg/L (≈ 1.27 µM)
- MIC [4, 28]: 1 mg/L (≈ 2.55 µM)
- MIC [4, 29]: 0.5 mg/L (≈ 1.27 µM)
- MIC [4, 30]: 0.5 mg/L (≈ 1.27 µM)

Compound: NC1CCN(c2nc3c(cc2F)c(=O)c(C(=O)O)cn3-c2ccc(F)cc2F)C1 (centres unmarked) [TFLX, tosufloxacin tosylate]
- MIC [1, 5]: ≤ 0.063 mg/L
- MIC [1, 6]: ≤ 0.063 mg/L
- MIC ([1]; MR5867-3, third-step mutant, further grlA S80F): > 128 mg/L
- MIC ([1]; MR5867-4, fourth-step mutant, further gyrA E88K): > 128 mg/L
- MIC [1, 7]: 1 mg/L
- MIC ([1]; MS5935-2, second-step mutant, further gyrA S84L): 64 mg/L
- MIC [1, 8]: > 128 mg/L
- MIC ([1]; MS5952-1, first-step quinolone-resistant mutant, grlA S80Y): 2 mg/L
- MIC ([1]; MS5952-3, third-step mutant, further grlA A116V): > 128 mg/L
- MIC [2, 9]: ≤ 0.063 mg/L
- MIC ([2]; COL, MRSA): 0.125 mg/L
- MIC [2, 10]: ≤ 0.063 mg/L
- MIC ([2]; ISA12-1, MRSA): ≤ 0.063 mg/L
- MIC ([2]; ISA12-2, MRSA): ≤ 0.063 mg/L
- MIC ([2]; ISA35-1, MRSA): 0.25 mg/L
- MIC ([2]; ISA37-1, MSSA): ≤ 0.063 mg/L
- MIC ([2]; ISA49-1, MSSA): ≤ 0.063 mg/L
- MIC ([2]; ISA51-1, MSSA): ≤ 0.063 mg/L
- MIC ([2]; ISA56-3, MRSA): ≤ 0.063 mg/L
- MIC ([2]; ISA58-1, MRSA): 0.5 mg/L
- MIC ([2]; ISA62-1, MRSA): ≤ 0.063 mg/L
- MIC ([2]; ISA73-1, MSSA): ≤ 0.063 mg/L
- MIC ([2]; KBSA32, MRSA): ≤ 0.063 mg/L
- MIC ([2]; KBSA34, MRSA): ≤ 0.063 mg/L
- MIC ([2]; KBSA72, MRSA): > 128 mg/L
- MIC ([2]; KBSA96, MRSA): 16 mg/L
- MIC ([2]; KBSA171, MRSA): 8 mg/L
- MIC ([2]; KSA24, MRSA): 8 mg/L
- MIC ([2]; KSA31, MRSA): 4 mg/L
- MIC ([2]; KSA36, MRSA): > 128 mg/L
- MIC [2, 11]: ≤ 0.063 mg/L
- MIC [2, 12]: 16 mg/L
- MIC ([2]; MW2, CA-MRSA): ≤ 0.063 mg/L
- MIC ([2]; N315, MRSA): ≤ 0.063 mg/L
- MIC ([3]; VRS1, VRSA, Michigan): 4 mg/L
- MIC ([3]; VRS2, VRSA, Pennsylvania): > 128 mg/L
- MIC ([3]; VRS3, VRSA, New York): > 128 mg/L
- MIC ([3]; VRS4, VRSA, New York): > 128 mg/L
- MIC ([3]; VRS5, VRSA, Michigan): > 128 mg/L
- MIC ([3]; VRS6, VRSA, Michigan): > 128 mg/L
- MIC ([3]; VRS7, VRSA, Michigan): 4 mg/L
- MIC [4, 13]: 0.5 mg/L
- MIC [4, 14]: 0.5 mg/L
- MIC [4, 15]: 0.5 mg/L
- MIC [4, 16]: > 128 mg/L
- MIC [4, 17]: ≤ 0.063 mg/L
- MIC [4, 18]: > 128 mg/L
- MIC [4, 19]: 0.25 mg/L
- MIC [4, 20]: > 128 mg/L
- MIC [4, 21]: > 128 mg/L
- MIC [4, 22]: 0.25 mg/L
- MIC [4, 23]: 0.5 mg/L
- MIC [4, 24]: > 128 mg/L
- MIC [4, 25]: > 128 mg/L
- MIC [4, 26]: 0.5 mg/L
- MIC [4, 27]: 0.25 mg/L
- MIC [4, 28]: 0.5 mg/L
- MIC [4, 29]: 0.25 mg/L
- MIC [4, 30]: 0.5 mg/L
